Reference: paper PMC12255297 (Nucleic Acids Research, 2025)

Legend:
[1] = target: T1, C. botulinum SAM-AMP lyase (Clostridium botulinum, UniProt A5I3U9)
T1 construct: gene CBO2178

[2] = target: T1, C. botulinum SAM-AMP lyase; remark: listed apart in the source

T1 sequence (A5I3U9 1-124 limits assumed): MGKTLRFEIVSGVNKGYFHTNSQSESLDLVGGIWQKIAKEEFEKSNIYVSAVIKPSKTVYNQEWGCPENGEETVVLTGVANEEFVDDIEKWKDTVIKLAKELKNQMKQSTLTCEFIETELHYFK

SMILES	HPLC and LC-MS of cleavage to MTA-AMP and homoserine lactone [1]	electrophoretic mobility shift assay, native gel [2]
C[S+](CC[C@H](N)C(=O)O)C[C@H]1O[C@@H](n2cnc3c(N)ncnc32)[C@H](O)[C@@H]1OP(=O)(O)OC[C@H]1O[C@@H](n2cnc3c(N)ncnc32)[C@H](O)[C@@H]1O (some centres unmarked) [SAM-AMP]	HPLC analysis and mass spectrometry confirmed that SAM-AMP was degraded, generating the previously observed MTA-AMP product	–
CSC[C@H]1O[C@@H](n2cnc3c(N)ncnc32)[C@H](O)[C@@H]1OP(=O)(O)OC[C@H]1O[C@@H](n2cnc3c(N)ncnc32)[C@H](O)[C@@H]1O [MTA-AMP]	–	SAM-AMP lyase binds its product MTA-AMP, but not SAH-AMP or SFG-AMP
